From US7223772B1, “Pyrazolopyridine derivatives as selective cox-2 inhibitors” (SmithKline Beecham Corporation, priority 1998, dated 2007)

How the values were obtained:
[1] = molecular target: T1, human COX-1 (Homo sapiens, UniProt P23219); assay: Inhibition of PGE2 release in COS cells stably transfected with human COX-1; assay type: cell-based; conditions: COS cells transfected with human COX-1, 30 μM arachidonic acid
T1 construct: expressed in transfected cells; host or cells: COS cells (stably transfected)
Protocol: (§1) Inhibitory activity against human COX-1 and COX-2 was assessed in COS cells which had been stably transfected with cDNA for human COX-1 and human COX-2. 24 Hours prior to experiment, COS cells were transferred from the 175 cm^2 flasks in which they were grown, onto 24-well cell culture plates using the following procedure. The incubation medium (Dulbecco's modified eagles medium (DMEM) supplemented with heat-inactivated foetal calf serum (10%v/v), penicillin (100 lU/ml), streptomycin (100 μg/ml) and geneticin (600 μg/ml)) was removed from a flask of confluent cells (1 flask at confluency contains approximately 1×10^7 cells). 10 ml of phosphate buffered saline (PBS) was added to the flask to wash the cells. Having discarded the PBS, cells were then rinsed in 10 ml trypsin for 20 seconds, after which the trypsin was removed and the flask placed in an incubator (37°) for 1-2 minutes until cells became detached from the flask. The flask was then removed from the incubator and cells resuspended in 10 ml of fresh incubation medium. The contents of the flask was transferred to a 250 ml sterile container and the volume of incubation medium subsequently made up to 100 ml. 1 ml cell suspension was pipetted into each well of 4×24-well cell culture plates. The plates were then placed in an incubator (37° C., 95% air/5% CO2) overnight. If more than 1 flask of cells were required, the cells from flasks were combined before being dispensed into the 24-well plates.
(§2) Following the overnight incubation, the incubation medium was completely removed from the 24-well cell culture plates and replaced with 250 μl fresh DMEM (37° C.). The test compounds were made up to 250× the required test concentration in DMSO and were added to the wells in a volume of 1 μl. Plates were then mixed gently by swirling and then placed in an incubator for 1 hour (37° C., 95% air/5% CO2). Following the incubation period, 10 μl of arachidonic acid (750 μM) was added to each well to give a final arachidonic acid concentration of 30 μM. Plates were then incubated for a further 15 minutes, after which the incubation medium was removed from each well of the plates and stored −20° C., prior to determination of prostaglandin E2 (PGE2) levels using enzyme immunoassay. The inhibitory potency of the test compound was expressed as an IC50 value, which is defined as the concentration of the compound required to inhibit the PGE2 release from the cells by 50%. The selectivity ratio of inhibition of COX-1 versus COX-2 was calculated by comparing respective IC50 values. The following IC50 values for inhibition of COX-2 and COX-1 were obtained for compounds of the invention: […]

[2] = molecular target: T2, human COX-2 (Homo sapiens, UniProt P35354); assay: Inhibition of PGE2 release in COS cells stably transfected with human COX-2; assay type: cell-based; conditions: COS cells transfected with human COX-2, 30 μM arachidonic acid
T2 construct: expressed in transfected cells; host or cells: COS cells (stably transfected)
T2 sequence (P35354 18-604): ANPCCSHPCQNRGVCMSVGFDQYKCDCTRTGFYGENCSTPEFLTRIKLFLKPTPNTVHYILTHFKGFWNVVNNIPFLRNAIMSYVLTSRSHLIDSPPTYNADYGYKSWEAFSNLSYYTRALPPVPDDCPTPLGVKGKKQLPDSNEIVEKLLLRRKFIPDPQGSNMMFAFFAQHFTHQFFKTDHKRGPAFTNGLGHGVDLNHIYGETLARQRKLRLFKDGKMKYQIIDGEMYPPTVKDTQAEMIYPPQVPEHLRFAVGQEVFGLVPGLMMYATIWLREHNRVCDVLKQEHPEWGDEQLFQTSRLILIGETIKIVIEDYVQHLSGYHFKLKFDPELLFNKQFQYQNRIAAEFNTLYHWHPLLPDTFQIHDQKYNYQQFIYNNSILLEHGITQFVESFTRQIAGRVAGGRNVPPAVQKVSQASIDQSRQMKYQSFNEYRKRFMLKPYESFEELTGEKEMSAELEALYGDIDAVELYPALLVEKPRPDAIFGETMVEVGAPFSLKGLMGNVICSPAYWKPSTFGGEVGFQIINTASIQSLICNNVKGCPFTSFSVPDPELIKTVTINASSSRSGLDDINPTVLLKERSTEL
Protocol: as §1, §2

T1 sequence (P23219 24-599): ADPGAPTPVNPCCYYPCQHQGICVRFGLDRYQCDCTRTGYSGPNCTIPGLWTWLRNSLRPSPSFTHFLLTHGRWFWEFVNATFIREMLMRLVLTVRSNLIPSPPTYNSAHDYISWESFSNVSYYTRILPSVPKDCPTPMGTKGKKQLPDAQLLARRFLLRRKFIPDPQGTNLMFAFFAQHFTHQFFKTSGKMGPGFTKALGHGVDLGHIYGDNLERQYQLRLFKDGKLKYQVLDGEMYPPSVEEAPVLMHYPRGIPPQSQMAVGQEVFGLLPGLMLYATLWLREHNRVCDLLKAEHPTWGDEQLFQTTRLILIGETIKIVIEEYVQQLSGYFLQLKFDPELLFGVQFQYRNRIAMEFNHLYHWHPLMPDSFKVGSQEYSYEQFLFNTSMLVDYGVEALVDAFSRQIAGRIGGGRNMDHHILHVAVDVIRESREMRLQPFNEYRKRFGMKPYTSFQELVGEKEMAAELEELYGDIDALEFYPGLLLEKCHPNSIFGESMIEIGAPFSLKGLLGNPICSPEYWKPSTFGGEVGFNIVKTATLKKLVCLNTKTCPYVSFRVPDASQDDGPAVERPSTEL

SMILES	IC50 [1] [nM]	IC50 [2] [nM]
CS(=O)(=O)c1ccc(-c2c(-c3cccc(F)c3)nn3cc(C(F)(F)F)ccc23)cc1 [Example 2, 2-(3-Fluoro-phenyl)-3-(4-methanesulfonyl-phenyl)-6-trifluoromethyl-pyrazolo[1,5-a]pyridine]	> 100000	548
NS(=O)(=O)c1ccc(-c2c(-c3ccc(F)cc3)nn3cc(C(F)(F)F)ccc23)cc1 [Example 4, 4-[2-(4-Fluoro-phenyl)-6-trifluoromethyl-pyrazolo[1,5-a]pyridin-3-yl]benzenesulfonamide]	> 100000	34
CS(=O)(=O)c1ccc(-c2c(-c3ccc(F)cc3)nn3cc(C(F)(F)F)ccc23)cc1 [Example 5, 2-(4-Fluoro-phenyl)-3-(4-methanesulfonyl-phenyl)-6-trifluoromethyl-pyrazolo[1,5-a]pyridine]	> 100000	26
CS(=O)(=O)c1ccc(-c2c(-c3ccccc3)nn3cc(C(F)(F)F)ccc23)cc1 [Example 7, 3-(4-Methanesulfonyl-phenyl)-2-phenyl-6-trifluoromethyl-pyrazolo[1,5-a]pyridine]	> 100000	30

Now from value to compound:

IC50 [1] [nM]	IC50 [2] [nM]	SMILES
> 100000	34	NS(=O)(=O)c1ccc(-c2c(-c3cccc(F)c3)nn3cc(C(F)(F)F)ccc23)cc1 [Example 1(vii), 4-[2-(3-Fluoro-phenyl)-6-trifluoromethyl-pyrazolo[1,5-a]pyridin-3-yl]benzenesulfonamide]
32200	34	CCOc1ccc(-c2nn3cc(C(F)(F)F)ccc3c2-c2ccc(S(N)(=O)=O)cc2)cc1 [Example 3, 4-[2-(4-Ethoxy-phenyl)-6-trifluoromethyl-pyrazolo[1,5-a]pyridin-3-yl]benzenesulfonamide]
26300	31	NS(=O)(=O)c1ccc(-c2c(-c3ccccc3)nn3cc(C(F)(F)F)ccc23)cc1 [Example 6, 4-(2-Phenyl-6-trifluoromethyl-pyrazolo[1,5-a]pyridin-3-yl)-benzenesulfonamide]
